Source: patent US20230285371A1 (THE SECOND XIANGYA HOSPITAL OF CENTRAL SOUTH UNIVERSITY, priority 2020, published 2023)
Values joined by “and” are separate entries in the source; they are usually repeats but may differ in a detail not shown here. Equal values may be shown once. Marks after values point to notes of the source that are not given here.

Tests used:
[1] = system: female NOD mice (type 1 diabetes induced by cyclophosphamide); experiment: Prevention of cyclophosphamide-induced type 1 diabetes in NOD mice; type: in vivo; settings: cyclophosphamide-induced T1D
Description: (§1) I. Materials and Methods • 1. Mice: The most widely used spontaneous type 1 diabetes mouse model for the study of type 1 diabetes—NOD mice were selected. Since the incidence rate of spontaneous type 1 diabetes in female NOD mice is much higher than that in male mice, female NOD mice were used for experiments in the present invention. The female NOD mice of the present invention were purchased from Shanghai Model Organisms Center, Inc. • 2. Preparation of medicine: Carboxymethylcellulose (CMC) was used as the solvent. […] Injection of cyclophosphamide: 300 mg/kg body weight of cyclophosphamide was injected into NOD mice so as to rapidly induce the onset of type 1 diabetes. • 5. Measurement of blood sugar: About 1 mm of the tail tip of the mice was cut off, the first drop of blood was wiped off with gauze, then the second drop of blood flew out naturally, which was drawn with a blood sugar test strip, and the reading was recorded. It can be diagnosed type 1 diabetes when two consecutive blood sugar readings were both >250 mg/dl. • 6. […] After 4 weeks of gavage, each mouse was injected with cyclophosphamide to induce the onset of type 1 diabetes, and the incidence rate of type 1 diabetes in the mice was observed and counted.

[2] = system: female NOD mice (spontaneous type 1 diabetes); experiment: Prevention of spontaneous type 1 diabetes in NOD mice; type: in vivo; settings: spontaneous T1D
Description: as §1

[3] = system: Th1 cell marker genes (Tbet and IFNγ) and pro-inflammatory cytokines (IL-1β, IL-6 and TNF-α) in the pancreas; experiment: Gene expression in pancreas of NOD mice, RT-PCR; type: in vivo
Description: (§2) From the age of 10 weeks, the mice were gavaged for 4 weeks, and injected with cyclophosphamide after the gavage for two weeks to induce the onset of the disease.

Naive CD4+ T cells = experiment: Cytotoxicity to T cells: cell count after 48 hours; type: cell-based, C57BL/6J mice
[4] = system: CD4+ T cell subsets (Th1, Th2, Th17 and Treg) in the pancreas; experiment: CD4+ T cell subsets in pancreas of NOD mice, flow cytometry; type: in vivo
Description: as §2

STAT4 and p-STAT4 = experiment: STAT4 phosphorylation in IL-12-treated Naive CD4+ T cells, western blot; type: cell-based, C57BL/6J mice; settings: IL-12, 48 hours
Description: The cells were collected after 48 hours to extract proteins for western blot (WB) to detect the protein levels of STAT4 and p-STAT4.

[5] = system: differentiation of Th1 cells induced by IL-12 (Naive CD4+ T cells); experiment: In vitro inhibition assay: IL-12-induced Th1 differentiation, flow cytometry; type: cell-based, C57BL/6J mice; settings: for Th1 (%) Average / Th1 (%): IL-12, 48 hours; for Th1 (%) Average: average of 3 wells; for Th1 (%): individual parallel wells
Description: C57BL/6J mice were sacrificed, the spleen was taken and disrupted in PBS containing 2% fetal bovine serum (FBS). The cell suspension was filtered through a 70 μm nylon filter to remove tissue debris. The obtained cell suspension was centrifuged at 300 g for 10 min, and the cells were resuspended in PBS containing 2% fetal bovine serum (FBS) to maintain a cell concentration of 1×10^8 nucleated cells/mL. Naive CD4+ T cells were extracted with the EasySep™ Mouse Naive CD4+ T Cell Isolation Kit ([…] Technologies), and the extracted Naive CD4+ T cells were cultured in RPMI-1640 medium (Gibco) containing 10% fetal bovine serum (Gibco) and 1% penicillin/streptomycin (Gibco).
The cells were collected after 48 hours, and subjected to flow cytometry to detect the proportion of Th1 cells.

NOD mice (insulitis) = settings: gavage once a day for 4 weeks from 8 weeks of age, nondiabetic mice, HE staining
[6] = Sorafenib group vs solvent group
[7] = relative to vehicle, individual mice
[8] = gavage 4 weeks, cyclophosphamide after 2 weeks, individual values

Which results are given for Sorafenib?
Survival rate (%) ([1]; 10 mg/kg gavage for 7 weeks, day 105): 94.12%; Survival rate (%) ([1]; 10 mg/kg gavage for 7 weeks, day 112): 88.24%; Survival rate (%) ([1]; 10 mg/kg gavage for 7 weeks, day 119): 82.35%; Survival rate (%) ([1]; 10 mg/kg gavage for 7 weeks, day 126): 76.47%; Survival rate (%) ([1]; 10 mg/kg gavage for 7 weeks, day 140, P<0.05 vs vehicle (35.71)): 76.47* %; Survival rate (%) ([1]; 10 mg/kg gavage once a day from 8 weeks of age for 7 weeks, cyclophosphamide 300 mg/kg after 4 weeks, n=17, day 0): 100%; preventive effect still existed after the gavage was stopped, lasted to ([1]; gavage stopped after 7 weeks): 20 weeks; incidence rate of type 1 diabetes ([1]; more than half of the CMC group developed T1D): 24%; Survival rate (%) ([2]; 10 mg/kg gavage once a day for 12 weeks, day 98): 91.30%; Survival rate (%) ([2]; 10 mg/kg gavage once a day for 12 weeks, day 119): 73.91%; Survival rate (%) ([2]; 10 mg/kg gavage once a day for 12 weeks, day 140): 65.22%; Survival rate (%) ([2]; 10 mg/kg gavage once a day for 12 weeks, day 154): 60.87%; Survival rate (%) ([2]; 10 mg/kg gavage once a day for 12 weeks, day 168): 52.17%; Survival rate (%) ([2]; 10 mg/kg gavage once a day for 12 weeks, day 224, P<0.1 vs vehicle (25)): 52.17^+ %; Survival rate (%) ([2]; 10 mg/kg gavage once a day from 8 weeks of age for 12 weeks, n=23, day 0): 100%; incidence rate of type 1 diabetes ([2]; at 32 weeks of age, CMC group 75%): 48%; IFNγ gene expression level in pancreas, Average ([3]; P<0.05 vs vehicle (1)): 0.27*; Il-1β gene expression level in pancreas, Average ([3]; P<0.05 vs vehicle (1)): 0.37*; TNFα gene expression level in pancreas, Average ([3]; P<0.05 vs vehicle (1)): 0.27*; Tbet gene expression level in pancreas, Average ([3]; P<0.1 vs vehicle (1.04)): 0.44^+; gene expression levels of Th1 cell marker genes (Tbet and IFNγ) and pro-inflammatory cytokines (IL-1β, IL-6 and TNF-α) in the pancreas [3, 6]: significantly reduced; IFNγ gene expression level in pancreas [3, 7]: 0.16 and 0.07 and 0.58; IL-6 gene expression level in pancreas [3, 7]: 0.64 and 0.12; Il-1β gene expression level in pancreas [3, 7]: 0.48 and 0.18 and 0.46; TNFα gene expression level in pancreas [3, 7]: 0.18 and 0.07 and 0.55; Tbet gene expression level in pancreas [3, 7]: 0.27 and 0.2 and 0.86; IL-6 gene expression level in pancreas, Average ([3]; vehicle 1): 0.38; Th0 (×10^4) Average (Naive CD4+ T cells; Sorafenib 1 μg/ml, 0 μg/ml control 9.47): 9.33 ×10^4; Th0 (×10^4) Average (Naive CD4+ T cells; Sorafenib 2 μg/ml): 8.1 ×10^4; Th0 (×10^4) Average (Naive CD4+ T cells; Sorafenib 4 μg/ml): 8 ×10^4; proportion of Th1 cells in the pancreas [4, 6]: significantly reduced; proportions of other T cell subsets in the pancreas [4, 6]: remained unchanged; Th1 (%) in pancreas ([4]; gavage 4 weeks from 10 weeks of age, cyclophosphamide after 2 weeks, individual values): 6.63% and 3.58%; Th1 (%) in pancreas, Average ([4]; gavage 4 weeks, cyclophosphamide after 2 weeks, P<0.05 vs vehicle (21.2)): 5.11* %; Th2 (%) in pancreas [4, 8]: 9.75% and 12.9% and 7.91%; Th17 (%) in pancreas [4, 8]: 3.28% and 0.68% and 1.19%; Tregs (%) in pancreas [4, 8]: 4.6% and 4.31% and 2.25% and 4.37%; Th17 (%) in pancreas, Average ([4]; gavage 4 weeks, cyclophosphamide after 2 weeks, vehicle 1.31): 1.72%; Tregs (%) in pancreas, Average ([4]; gavage 4 weeks, cyclophosphamide after 2 weeks, vehicle 4.345): 3.88%; Th2 (%) in pancreas, Average ([4]; gavage 4 weeks, cyclophosphamide after 2 weeks, vehicle 9.45): 10.19%; effect on phosphorylation of STAT4 (STAT4 and p-STAT4): can inhibit the phosphorylation of STAT4; effect on IL-12-induced Th1 differentiation ([5]; 0, 1, 2, 4 μg/ml, 48 hours): inhibit IL-12-induced Th1 differentiation in a dose-dependent manner; Th1 (%) Average ([5]; Sorafenib 1 μg/ml, 0 μg/ml control 85.27): 80.43%; Th1 (%) ([5]; Sorafenib 1 μg/ml): 77.9% and 76% and 87.4%; Th1 (%) Average ([5]; Sorafenib 2 μg/ml, P<0.01 vs 0 μg/ml): 68.53** %; Th1 (%) ([5]; Sorafenib 2 μg/ml): 67.8% and 68.5% and 69.3%; Th1 (%) Average ([5]; Sorafenib 4 μg/ml, P<0.001 vs 0 μg/ml): 15.66*** %; Th1 (%) ([5]; Sorafenib 4 μg/ml): 24.9% and 12.9% and 9.17%; insulitis compared with the CMC group (NOD mice (insulitis)): significantly improved
